{"source": "ChEMBL document CHEMBL1201862", "about": "“PubChem BioAssay data set” (2004)", "key": {"[1]": {"target": "T1, Replicative DNA helicase DnaB (Mycobacterium tuberculosis, UniProt P9WMR3)", "T1 sequence (P9WMR3 whole entry)": "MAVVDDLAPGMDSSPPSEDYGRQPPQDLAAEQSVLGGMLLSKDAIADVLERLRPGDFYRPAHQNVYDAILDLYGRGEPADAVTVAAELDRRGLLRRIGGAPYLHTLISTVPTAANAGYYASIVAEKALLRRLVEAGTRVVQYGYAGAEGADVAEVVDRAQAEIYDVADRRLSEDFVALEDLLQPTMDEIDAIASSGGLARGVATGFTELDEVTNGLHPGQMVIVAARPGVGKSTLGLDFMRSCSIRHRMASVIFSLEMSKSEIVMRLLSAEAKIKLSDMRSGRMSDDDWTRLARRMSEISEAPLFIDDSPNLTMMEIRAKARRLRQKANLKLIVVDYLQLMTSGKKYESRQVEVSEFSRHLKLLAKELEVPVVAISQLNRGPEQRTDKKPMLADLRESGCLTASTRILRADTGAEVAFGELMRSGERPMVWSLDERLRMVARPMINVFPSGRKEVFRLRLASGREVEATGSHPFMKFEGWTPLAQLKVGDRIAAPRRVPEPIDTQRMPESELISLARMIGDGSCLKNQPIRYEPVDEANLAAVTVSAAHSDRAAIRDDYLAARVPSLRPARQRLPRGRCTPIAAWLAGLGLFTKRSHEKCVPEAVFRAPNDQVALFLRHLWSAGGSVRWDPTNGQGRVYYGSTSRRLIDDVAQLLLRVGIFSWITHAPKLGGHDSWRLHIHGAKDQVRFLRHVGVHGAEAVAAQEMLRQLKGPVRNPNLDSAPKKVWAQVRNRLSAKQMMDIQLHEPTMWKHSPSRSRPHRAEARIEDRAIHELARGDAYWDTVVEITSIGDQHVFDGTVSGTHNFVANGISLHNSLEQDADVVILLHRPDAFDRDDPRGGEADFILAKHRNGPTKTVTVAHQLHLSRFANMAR", "assay": "DnaB intein splicing inhibitors, dose response, biochemical, cell-free fluorescence (AID 449749)", "assay_type": "functional"}, "Protein RecA": {"target": "T2, Protein RecA (Mycobacterium tuberculosis, UniProt P9WHJ3)", "T2 sequence (P9WHJ3 whole entry)": "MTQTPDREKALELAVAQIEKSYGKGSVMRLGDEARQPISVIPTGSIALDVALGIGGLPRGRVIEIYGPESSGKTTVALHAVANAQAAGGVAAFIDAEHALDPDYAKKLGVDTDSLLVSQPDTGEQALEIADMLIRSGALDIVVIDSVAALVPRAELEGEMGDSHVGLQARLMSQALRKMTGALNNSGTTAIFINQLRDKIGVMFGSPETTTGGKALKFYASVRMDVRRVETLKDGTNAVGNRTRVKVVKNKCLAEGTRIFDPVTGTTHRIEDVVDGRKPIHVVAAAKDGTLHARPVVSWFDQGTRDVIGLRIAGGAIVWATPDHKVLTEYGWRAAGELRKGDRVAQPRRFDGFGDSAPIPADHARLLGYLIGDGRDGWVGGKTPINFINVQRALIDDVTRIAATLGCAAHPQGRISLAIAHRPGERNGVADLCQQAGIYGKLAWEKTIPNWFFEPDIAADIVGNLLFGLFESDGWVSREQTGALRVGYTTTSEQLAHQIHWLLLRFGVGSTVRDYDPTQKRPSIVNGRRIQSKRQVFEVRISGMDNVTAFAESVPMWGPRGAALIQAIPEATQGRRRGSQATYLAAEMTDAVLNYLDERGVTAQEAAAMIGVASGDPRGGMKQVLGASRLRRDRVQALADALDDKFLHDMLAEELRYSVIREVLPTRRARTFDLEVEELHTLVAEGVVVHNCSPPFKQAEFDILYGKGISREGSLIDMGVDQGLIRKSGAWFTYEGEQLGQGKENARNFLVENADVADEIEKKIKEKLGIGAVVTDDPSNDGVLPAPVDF", "assay": "Fluorescence Cell-Free Homogeneous Dose Retest to Identify Inhibitors of RecA-Intein Splicing Activity. [Related pubchem assays (depositor defined):AID2097, AID2223, AID489010, AID492950]", "assay_type": "functional"}, "[2]": {"target": "T3, RNA-binding protein pos-1 (Caenorhabditis elegans, UniProt G5EF15)", "T3 sequence (G5EF15 whole entry)": "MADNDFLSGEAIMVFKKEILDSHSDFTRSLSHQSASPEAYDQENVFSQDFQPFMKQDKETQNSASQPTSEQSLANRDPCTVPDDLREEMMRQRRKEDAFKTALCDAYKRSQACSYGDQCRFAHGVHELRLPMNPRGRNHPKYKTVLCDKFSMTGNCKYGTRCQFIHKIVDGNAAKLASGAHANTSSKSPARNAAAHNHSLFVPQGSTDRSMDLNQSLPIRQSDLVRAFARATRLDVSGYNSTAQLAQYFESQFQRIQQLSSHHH", "assay": "inhibitors of POS-1/mex-3 RNA binding, dose response, biochemical, fluorescence polarization (AID 1964);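 further: purified POS-1 fused to maltose binding protein made in E. coli; potency of compounds blocking POS-1 binding to fluorescent RNA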"}, "[3]": {"target": "Dual specificity protein kinase CLK2 (Homo sapiens, UniProt P49760)", "assay_type": "functional"}, "[4]": {"target": "Inhibitor of nuclear factor kappa-B kinase subunit epsilon (Homo sapiens, UniProt Q14164)", "assay": "Navigating the Kinome. Panel member name: IKBKE", "assay_type": "functional"}, "[5]": {"target": "Leukocyte tyrosine kinase receptor (Homo sapiens, UniProt P29376)", "sequence (P29376 whole entry)": "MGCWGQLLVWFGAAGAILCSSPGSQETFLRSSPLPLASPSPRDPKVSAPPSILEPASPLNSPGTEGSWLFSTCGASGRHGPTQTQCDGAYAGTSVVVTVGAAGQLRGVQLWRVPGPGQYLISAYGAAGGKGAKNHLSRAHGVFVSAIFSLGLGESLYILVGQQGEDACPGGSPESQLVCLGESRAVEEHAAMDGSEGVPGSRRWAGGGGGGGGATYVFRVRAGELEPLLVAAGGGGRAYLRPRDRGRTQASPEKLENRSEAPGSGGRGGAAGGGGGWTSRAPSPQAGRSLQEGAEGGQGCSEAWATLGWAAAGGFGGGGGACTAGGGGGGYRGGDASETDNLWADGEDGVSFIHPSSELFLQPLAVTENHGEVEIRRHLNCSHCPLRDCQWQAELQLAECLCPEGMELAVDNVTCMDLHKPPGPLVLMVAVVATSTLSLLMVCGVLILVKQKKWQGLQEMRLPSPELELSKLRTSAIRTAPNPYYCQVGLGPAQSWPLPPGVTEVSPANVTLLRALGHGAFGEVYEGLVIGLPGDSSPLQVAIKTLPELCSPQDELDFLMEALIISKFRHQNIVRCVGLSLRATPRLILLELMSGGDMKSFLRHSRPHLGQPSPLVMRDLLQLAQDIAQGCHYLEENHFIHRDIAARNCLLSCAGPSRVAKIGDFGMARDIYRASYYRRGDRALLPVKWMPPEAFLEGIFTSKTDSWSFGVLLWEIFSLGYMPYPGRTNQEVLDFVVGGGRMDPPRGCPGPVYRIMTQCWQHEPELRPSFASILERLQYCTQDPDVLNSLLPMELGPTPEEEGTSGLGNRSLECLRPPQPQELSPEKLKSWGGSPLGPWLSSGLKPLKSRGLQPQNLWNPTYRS", "assay": "Navigating the Kinome. Panel member name: LTK", "assay_type": "functional"}, "[6]": {"target": "Serine/threonine-protein kinase TBK1 (Homo sapiens, UniProt Q9UHD2)", "sequence (Q9UHD2 whole entry)": "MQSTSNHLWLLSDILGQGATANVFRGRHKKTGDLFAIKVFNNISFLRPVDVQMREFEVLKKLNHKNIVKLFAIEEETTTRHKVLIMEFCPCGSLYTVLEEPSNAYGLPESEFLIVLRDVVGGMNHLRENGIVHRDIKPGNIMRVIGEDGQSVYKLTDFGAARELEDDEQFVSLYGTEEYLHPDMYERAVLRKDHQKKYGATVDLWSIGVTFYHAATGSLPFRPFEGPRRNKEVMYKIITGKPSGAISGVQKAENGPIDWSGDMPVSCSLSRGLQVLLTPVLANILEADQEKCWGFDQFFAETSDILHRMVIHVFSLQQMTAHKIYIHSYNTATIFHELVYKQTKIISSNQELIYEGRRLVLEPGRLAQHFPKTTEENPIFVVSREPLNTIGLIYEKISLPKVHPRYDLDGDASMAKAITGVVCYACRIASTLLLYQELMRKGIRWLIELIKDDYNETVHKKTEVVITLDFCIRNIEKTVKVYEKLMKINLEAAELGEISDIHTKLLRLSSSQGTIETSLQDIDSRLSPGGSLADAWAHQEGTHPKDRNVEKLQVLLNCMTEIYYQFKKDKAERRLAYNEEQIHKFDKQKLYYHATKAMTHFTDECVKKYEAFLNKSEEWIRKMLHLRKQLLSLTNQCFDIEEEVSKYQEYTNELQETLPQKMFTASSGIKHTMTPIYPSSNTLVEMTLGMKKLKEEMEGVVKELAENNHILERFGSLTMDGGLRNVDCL", "assay": "Navigating the Kinome. Panel member name: TBK1", "assay_type": "functional"}, "Activated CDC42 kinase 1": {"target": "Activated CDC42 kinase 1 (Homo sapiens, UniProt Q07912)", "assay": "Navigating the Kinome. Panel member name: ACK1", "assay_type": "functional"}, "[7]": {"target": "Mitogen-activated protein kinase kinase kinase kinase 2 (Homo sapiens, UniProt Q12851)", "sequence (Q12851 whole entry)": "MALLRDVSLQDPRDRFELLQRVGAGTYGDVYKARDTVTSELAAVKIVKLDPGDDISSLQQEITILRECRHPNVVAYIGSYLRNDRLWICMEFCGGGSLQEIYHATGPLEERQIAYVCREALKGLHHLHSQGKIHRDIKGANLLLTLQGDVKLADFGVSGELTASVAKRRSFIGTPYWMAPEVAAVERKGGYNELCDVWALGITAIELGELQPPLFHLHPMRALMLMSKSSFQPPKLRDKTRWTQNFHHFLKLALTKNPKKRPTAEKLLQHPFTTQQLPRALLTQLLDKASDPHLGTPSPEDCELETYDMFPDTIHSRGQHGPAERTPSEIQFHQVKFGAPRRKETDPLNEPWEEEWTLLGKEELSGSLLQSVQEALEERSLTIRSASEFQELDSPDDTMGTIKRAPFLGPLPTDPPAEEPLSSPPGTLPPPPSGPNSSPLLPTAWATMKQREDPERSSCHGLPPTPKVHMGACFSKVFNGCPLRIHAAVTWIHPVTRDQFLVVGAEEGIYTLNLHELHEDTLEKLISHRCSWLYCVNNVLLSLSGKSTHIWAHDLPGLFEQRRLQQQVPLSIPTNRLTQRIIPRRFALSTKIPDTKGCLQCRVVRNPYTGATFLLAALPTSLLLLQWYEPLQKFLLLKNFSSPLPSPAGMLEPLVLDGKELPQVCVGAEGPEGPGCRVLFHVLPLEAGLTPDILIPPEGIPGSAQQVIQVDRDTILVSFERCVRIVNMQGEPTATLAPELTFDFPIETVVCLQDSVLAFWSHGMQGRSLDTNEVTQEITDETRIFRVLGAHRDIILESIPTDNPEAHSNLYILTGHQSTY", "assay_type": "functional"}, "[8]": {"target": "ALK tyrosine kinase receptor (Homo sapiens, UniProt Q9UM73)", "assay_type": "functional"}, "[9]": {"target": "Tyrosine-protein kinase BTK (Homo sapiens, UniProt Q06187)", "sequence (Q06187 whole entry)": "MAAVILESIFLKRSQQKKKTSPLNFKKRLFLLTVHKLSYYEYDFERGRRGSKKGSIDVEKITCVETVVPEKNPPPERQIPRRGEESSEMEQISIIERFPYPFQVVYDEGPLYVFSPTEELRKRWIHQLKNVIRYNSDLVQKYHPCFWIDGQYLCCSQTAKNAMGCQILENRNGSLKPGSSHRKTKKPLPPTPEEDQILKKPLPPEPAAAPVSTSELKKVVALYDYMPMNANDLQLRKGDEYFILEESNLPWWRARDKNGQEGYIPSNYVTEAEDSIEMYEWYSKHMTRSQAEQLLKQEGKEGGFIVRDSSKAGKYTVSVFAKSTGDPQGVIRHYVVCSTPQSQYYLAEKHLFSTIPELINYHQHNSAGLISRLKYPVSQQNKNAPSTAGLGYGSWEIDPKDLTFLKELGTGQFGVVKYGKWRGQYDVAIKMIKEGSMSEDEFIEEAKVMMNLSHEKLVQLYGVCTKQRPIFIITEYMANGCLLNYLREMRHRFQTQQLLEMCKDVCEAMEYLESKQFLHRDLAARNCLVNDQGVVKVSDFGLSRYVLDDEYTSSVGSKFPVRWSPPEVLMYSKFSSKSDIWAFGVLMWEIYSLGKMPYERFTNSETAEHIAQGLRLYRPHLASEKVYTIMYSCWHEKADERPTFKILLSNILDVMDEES", "assay_type": "functional"}, "[10]": {"target": "Receptor tyrosine-protein kinase erbB-4 (Homo sapiens, UniProt Q15303)", "assay_type": "functional"}, "[11]": {"target": "RAC-alpha serine/threonine-protein kinase (Homo sapiens, UniProt P31749)", "assay_type": "functional"}, "[12]": {"target": "Proto-oncogene tyrosine-protein kinase Src (Homo sapiens, UniProt P12931)", "assay_type": "functional"}, "Ephrin type-A receptor 2": {"target": "Ephrin type-A receptor 2 (Homo sapiens, UniProt P29317)", "assay_type": "functional"}, "[13]": {"target": "Serine/threonine-protein kinase PLK4 (Homo sapiens, UniProt O00444)", "assay_type": "functional"}, "[14]": {"target": "Non-receptor tyrosine-protein kinase TYK2 (Homo sapiens, UniProt P29597)", "sequence (P29597 whole entry)": "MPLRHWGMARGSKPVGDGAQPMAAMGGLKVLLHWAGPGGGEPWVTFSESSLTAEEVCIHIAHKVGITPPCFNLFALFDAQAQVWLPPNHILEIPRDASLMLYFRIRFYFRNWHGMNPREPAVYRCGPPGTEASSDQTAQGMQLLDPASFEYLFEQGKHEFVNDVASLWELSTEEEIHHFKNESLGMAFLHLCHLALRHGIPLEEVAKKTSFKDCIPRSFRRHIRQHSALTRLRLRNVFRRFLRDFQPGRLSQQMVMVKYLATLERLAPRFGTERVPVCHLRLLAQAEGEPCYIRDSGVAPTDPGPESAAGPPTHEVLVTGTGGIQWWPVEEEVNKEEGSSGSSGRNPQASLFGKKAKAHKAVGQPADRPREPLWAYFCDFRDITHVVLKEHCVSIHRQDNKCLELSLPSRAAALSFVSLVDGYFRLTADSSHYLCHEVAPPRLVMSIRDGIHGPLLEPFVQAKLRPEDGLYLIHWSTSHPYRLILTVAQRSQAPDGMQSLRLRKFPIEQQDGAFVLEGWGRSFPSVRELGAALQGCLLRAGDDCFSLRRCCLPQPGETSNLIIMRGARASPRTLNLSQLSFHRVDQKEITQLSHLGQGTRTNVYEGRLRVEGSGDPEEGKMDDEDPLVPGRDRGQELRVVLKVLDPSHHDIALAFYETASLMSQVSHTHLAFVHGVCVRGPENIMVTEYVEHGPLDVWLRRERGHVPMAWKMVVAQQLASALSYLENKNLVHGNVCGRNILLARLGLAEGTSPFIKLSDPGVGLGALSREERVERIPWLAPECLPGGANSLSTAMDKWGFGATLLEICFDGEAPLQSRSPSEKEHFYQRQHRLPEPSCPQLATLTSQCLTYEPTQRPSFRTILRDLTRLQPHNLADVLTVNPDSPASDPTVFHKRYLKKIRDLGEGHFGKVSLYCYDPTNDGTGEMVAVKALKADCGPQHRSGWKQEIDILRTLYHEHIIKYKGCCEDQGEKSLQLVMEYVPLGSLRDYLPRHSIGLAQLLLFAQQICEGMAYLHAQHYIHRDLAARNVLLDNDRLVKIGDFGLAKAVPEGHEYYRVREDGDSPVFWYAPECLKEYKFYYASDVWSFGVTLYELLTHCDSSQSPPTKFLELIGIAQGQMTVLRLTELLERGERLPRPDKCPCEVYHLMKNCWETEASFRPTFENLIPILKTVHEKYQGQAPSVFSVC", "assay_type": "functional"}, "[15]": {"target": "Interleukin-1 receptor-associated kinase 4 (Homo sapiens, UniProt Q9NWZ3)", "sequence (Q9NWZ3 whole entry)": "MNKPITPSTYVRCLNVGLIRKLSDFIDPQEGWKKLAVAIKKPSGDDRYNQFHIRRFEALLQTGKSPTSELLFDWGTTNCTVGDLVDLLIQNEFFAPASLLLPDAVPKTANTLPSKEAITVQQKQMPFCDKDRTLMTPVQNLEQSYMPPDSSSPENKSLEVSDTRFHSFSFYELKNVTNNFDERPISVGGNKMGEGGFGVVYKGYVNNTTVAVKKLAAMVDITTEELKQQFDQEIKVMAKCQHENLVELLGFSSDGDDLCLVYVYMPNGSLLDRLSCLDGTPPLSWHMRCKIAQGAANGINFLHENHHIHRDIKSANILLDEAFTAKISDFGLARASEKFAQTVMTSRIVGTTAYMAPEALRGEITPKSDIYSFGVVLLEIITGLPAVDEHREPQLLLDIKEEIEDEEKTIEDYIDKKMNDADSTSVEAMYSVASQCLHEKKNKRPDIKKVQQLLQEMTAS", "assay_type": "functional"}}, "note": "Calls of active or inactive are those of the source.", "data": [{"smiles": "O=C1C=C(NCc2ccccc2)c2ccccc2C1=O", "values": [{"measurement": "AC50", "setting": "[1]", "result": "> 380 µM (inconclusive)"}, {"measurement": "EC50", "setting": "Protein RecA", "result": "0.774 µM (active)"}]}, {"smiles": "O=C(O)c1[nH]c2ccccc2c1C(c1cc(Cl)cc([N+](=O)[O-])c1O)c1c(C(=O)O)[nH]c2ccccc12", "values": [{"measurement": "EC50", "setting": "[2]", "result": "14.9 µM (active)"}]}, {"smiles": "Cc1cc(=O)[nH]nc1-c1ccc(NC(=O)Nc2cc(C(F)(F)F)ccc2F)c(Cl)c1", "values": [{"measurement": "Ki", "setting": "[3]", "result": "> 3.98 µM (inactive)"}, {"measurement": "Ki", "setting": "[4]", "result": "> 3.16 µM (inactive)"}, {"measurement": "Ki", "setting": "[5]", "result": "> 2.51 µM (inactive)"}, {"measurement": "Ki", "setting": "[6]", "result": "> 3.16 µM (inactive)"}, {"measurement": "Ki", "setting": "Activated CDC42 kinase 1", "result": "> 3.98 µM (inactive)"}, {"measurement": "Ki", "setting": "[7]", "result": "> 2.51 µM (inactive)"}, {"measurement": "Ki", "setting": "[8]", "result": "> 6.31 µM (inactive)"}, {"measurement": "Ki", "setting": "[9]", "result": "> 6.31 µM (inactive)"}]}, {"smiles": "CCOC(=O)c1cn(-c2ccc(O)cc2C)c2cc(-c3ccncc3)ccc2c1=O", "values": [{"measurement": "Ki", "setting": "[10]", "result": "> 3.98 µM (inactive)"}, {"measurement": "Ki", "setting": "[11]", "result": "> 7.94 µM (inactive)"}, {"measurement": "Ki", "setting": "[12]", "result": "> 5.01 µM (inactive)"}, {"measurement": "Ki", "setting": "Ephrin type-A receptor 2", "result": "> 3.16 µM (inactive)"}, {"measurement": "Ki", "setting": "[13]", "result": "> 3.98 µM (inactive)"}, {"measurement": "Ki", "setting": "[14]", "result": "> 2 µM (inactive)"}, {"measurement": "Ki", "setting": "[15]", "result": "> 10 µM (inactive)"}]}]}
